Laboratory results: the NIST ThermoML archive (doi:10.1021/je200659c)

Assays:
[1] = xn = mol fraction of the nth substance listed; conditions: Maximal bubble pressure
[2] = Maximal bubble pressure

COS(=O)(=O)[O-].Cn1cc[n+](C)c1 [1,3-dimethylimidazolium methylsulfate] + O
[1]
Conditions	surface tension liquid-gas [mN/m]
297 K, x1 = 0.008	70.6
297.1 K, x1 = 0.025	69.5
297.3 K, x1 = 0.055	68.2
297.6 K, x1 = 0.093	67.3
297.6 K, x1 = 0.141	66.4
297.7 K, x1 = 0.183	65.7
298 K, x1 = 0.222	65.3
298.1 K, x1 = 0.261	64.7
298.1 K, x1 = 0.292	64.7

CCCCn1cc[n+](C)c1.CS(=O)(=O)[O-] [1-butyl-3-methylimidazolium methanesulfonate] + O
[1]
Conditions	surface tension liquid-gas [mN/m]
297.5 K, x1 = 0.004	65.1
297.7 K, x1 = 0.014	62.9
297.8 K, x1 = 0.026	59.6
297.8 K, x1 = 0.064	53.6
298 K, x1 = 0.115	50.3
298 K, x1 = 0.256	45.9
298.2 K, x1 = 0.173	48.2
298.2 K, x1 = 0.24	46.7
298.2 K, x1 = 0.291	45.1
304.7 K, x1 = 0.005	66.3
304.8 K, x1 = 0.177	47.9
304.9 K, x1 = 0.011	63.5
305.1 K, x1 = 0.109	50.8
305.1 K, x1 = 0.141	49.5
305.1 K, x1 = 0.16	48.5
305.2 K, x1 = 0.017	61.3
305.2 K, x1 = 0.08	52.4
305.3 K, x1 = 0.052	55.3
305.4 K, x1 = 0.027	59.2
312.2 K, x1 = 0.092	51.4
312.2 K, x1 = 0.184	47.8
312.3 K, x1 = 0.145	49.4
312.4 K, x1 = 0.069	53.2
312.6 K, x1 = 0.005	65.3
312.6 K, x1 = 0.019	60.3
312.8 K, x1 = 0.01	62.9
312.8 K, x1 = 0.041	56.3
318.1 K, x1 = 0.339	44.2
318.3 K, x1 = 0.259	45.5
318.7 K, x1 = 0.165	47.7
320.1 K, x1 = 0.034	56.1
320.1 K, x1 = 0.083	51.4
320.8 K, x1 = 0.023	58.2
321.3 K, x1 = 0.013	61
321.8 K, x1 = 0.004	64.8

CCn1cc[n+](C)c1.CS(=O)(=O)[O-] [1-ethyl-3-methylimidazolium methanesulfonate] + O
[1]
Conditions	surface tension liquid-gas [mN/m]
300 K, x1 = 0.002	72.1
300 K, x1 = 0.03	69.8
300.1 K, x1 = 0.025	70.4
300.2 K, x1 = 0.004	71.6
300.2 K, x1 = 0.006	71.4
300.3 K, x1 = 0.01	71.1
300.4 K, x1 = 0.015	70.7
300.4 K, x1 = 0.019	70.5
301 K, x1 = 0.065	67.9
301.2 K, x1 = 0.274	60.7
301.3 K, x1 = 0.002	71.4
301.3 K, x1 = 0.004	70.9
301.3 K, x1 = 0.007	70.4
301.3 K, x1 = 0.013	69.8
301.3 K, x1 = 0.019	69.2
301.3 K, x1 = 0.026	68.8
301.3 K, x1 = 0.032	68.4
301.3 K, x1 = 0.376	59.2
301.4 K, x1 = 0.01	70.1
301.7 K, x1 = 0.112	65.6
301.7 K, x1 = 0.485	58.1
302.4 K, x1 = 0.08	66
302.7 K, x1 = 0.133	63.5
302.7 K, x1 = 0.181	62.9
302.9 K, x1 = 0.199	61.2
303.2 K, x1 = 0.474	57.3
303.3 K, x1 = 0.388	57.7
303.8 K, x1 = 0.284	58.7

CCCCCCn1cc[n+](C)c1.[Cl-] [1-hexyl-3-methylimidazolium chloride] + O
[1]
Conditions	surface tension liquid-gas [mN/m]
297.2 K, x1 = 0.003	61.8
297.4 K, x1 = 0.009	55.2
297.4 K, x1 = 0.02	50.5
297.6 K, x1 = 0.045	47.6
297.7 K, x1 = 0.013	52.8
297.8 K, x1 = 0.073	46
297.9 K, x1 = 0.121	43.8
298 K, x1 = 0.092	45
298.2 K, x1 = 0.143	43.2

O [water]
[2]
Conditions	surface tension liquid-gas [mN/m]
296.8 K	71.1
297 K	71.9
297.7 K	70.9
300 K	71.6
301.2 K	71.4
304.3 K	70.7
312.4 K	69.4
321.3 K	68.1

O [water] + CCCCCCn1cc[n+](C)c1.[Cl-]
Conditions	surface tension liquid-gas [mN/m]
[1], 297.7 K, x2 = 0	70.9

O [water] + CCCCn1cc[n+](C)c1.CS(=O)(=O)[O-]
[1], x2 = 0
Conditions	surface tension liquid-gas [mN/m]
297 K	71.9
304.3 K	70.7
312.4 K	69.4
321.3 K	68.1

O [water] + CCn1cc[n+](C)c1.CS(=O)(=O)[O-]
[1], x2 = 0
Conditions	surface tension liquid-gas [mN/m]
300 K	71.6
301.2 K	71.4

O [water] + COS(=O)(=O)[O-].Cn1cc[n+](C)c1
Conditions	surface tension liquid-gas [mN/m]
[1], 296.8 K, x2 = 0	71.1
